Tests used:
7402 cells [1] = assay: MTT cell viability assay, 7402; type: cell-based; settings: Homo sapiens, 48 h, read-out: Half inhibitory concentration (IC50), 7402
Procedure: (§1) HepG2 (human epidermoid hepatocellular carcinoma cell), 7402 (human epidermoid hepatocellular carcinoma cell), C-33A (human epidermoid cervical carcinoma cell), and HeLa (human epidermoid cervical adenocarcinoma cell) were incubated in Dulbecco’s modified Eagle’s medium (DMEM), which was purchased from Gibco (Grand Island, NY, United States). SiHa cells (human epidermoid cervical squamous cell carcinoma) were incubated in minimum essential medium (MEM, also from Gibco). CaSki (human epidermoid cervical carcinoma cell) and LO2 (human normal liver cell) were incubated in minimum essential medium (MEM, also from Gibco). All cells were maintained at 37°C in a humidified incubator with 5% carbon dioxide, and the media contained 10% fetal bovine serum (FBS, Corning, United States) and 1% penicillin–streptomycin antibiotic solution (Corning, United States). SiHa and CaSki were bought from the China Center for Type Culture Collection (CCTCC). The other five types of cancer cell lines were obtained from the Experiment Center of Medicine, Sinopharm Dongfeng Hospital, Hubei University of Medicine. The compounds were dissolved in dimethyl sulfoxide (DMSO, MP Biomedicals, United States), and cisplatin was purchased from Aladdin, Shanghai, China. The control (0 μM) group was treated with DMSO only in the same conditions, and the DMSO content in the medium was less than 0.1%.
Cell viability was measured by a 3-(4,5-dimethylthiazol-2-yl)-2,5-diphenyltetrazolium bromide (MTT, MultiSciences, China) assay. The specific experimental steps referred to our previous research ([Zhu et al., 2020]). For each cell line, cells were digested and seeded in 96-well plates at a density of 1 × 10^3 cells/well. […] Then, the formed formazan crystals were dissolved in DMSO, and the plates were estimated in a […] microplate reader (BioTek Inc., Bio-Tek MQX200) at a wavelength of 490 nm. Optical density (OD) values were obtained, and the inhibition rate and IC50 of each compound on different cells were calculated by GraphPad Prism 8.0.1 software. […]

LO2 cells = assay: MTT cell viability assay, normal liver LO2; type: cell-based, human
Procedure: as §1
Cell viability was measured by a 3-(4,5-dimethylthiazol-2-yl)-2,5-diphenyltetrazolium bromide (MTT, MultiSciences, China) assay. The specific experimental steps referred to our previous research ([Zhu et al., 2020]). For each cell line, cells were digested and seeded in 96-well plates at a density of 1 × 10^3 cells/well. After 24 h of culture, the cells were adherent and treated with varying concentrations of RPDPRH (0, 3.125, 6.25, 12.5, 25, 50, and 100 μM). Cells without treatment were used as a solvent control group (0 μM, DMSO) and those with cisplatin treatment served as a positive control. After 48 h of treatment, MTT solution was added and incubated for 4 h. Then, the formed formazan crystals were dissolved in DMSO, and the plates were estimated in a […] microplate reader (BioTek Inc., Bio-Tek MQX200) at a wavelength of 490 nm. Optical density (OD) values were obtained, and the inhibition rate and IC50 of each compound on different cells were calculated by GraphPad Prism 8.0.1 software. Cell inhibition rate (%) = 1− [(OD experimental-OD blank)/(OD control-OD blank)] × 100%.

HepG2 cells = assay: Annexin V-FITC/PI flow cytometry apoptosis assay, HepG2; type: cell-based, human; settings: 48 h; for total apoptosis rate: DMSO control 7.73 ± 2.18%
Procedure: (§2) The effect of RPDPRH on apoptosis was performed using the Annexin V-FITC/PI Apoptosis kit (MultiSciences, China), following the manufacturer’s protocol. The cells were digested, dispersed, and plated into six-well plates with 2 × 10^4 cells/well and treated with RPDPRH (0, 6.25, 12.5, and 25 μM) at various concentrations for 48 h. Upon completion of the treatment, cells were harvested, washed with cool phosphate buffered solution (PBS, Gibco, United States) (0.01 M, pH=7.4), and re-suspended in a 500 μl binding buffer. Annexin V-FITC (5 μl) and PI (10 μl) were added into the cell suspension, and then, the suspension was incubated at room temperature away from light for 5 min. Cells were analyzed by using a flow cytometer (Agilent NovoCyte, China) immediately, and the results of the apoptosis were analyzed by FlowJo software.

7402 cells [2] = assay: Annexin V-FITC/PI flow cytometry apoptosis assay, 7402; type: cell-based, human; settings: 48 h; for total apoptosis rate: DMSO control 8.96 ± 3.05%
Procedure: as §2

Bax [3] = assay: Western blot, Bax expression in HepG2 cells; type: cell-based, human; settings: HepG2, 25 μM, 48 h, vs DMSO control
Procedure: (§3) The experimental steps of the Western blotting assay referred to Lin’s study ([Lin et al., 2020]). After treatment with different concentrations of RPDPRH (0, 6.25, 12.5, and 25 μM) for 48 h, hepatocarcinoma cells were lysed with an ice-cold RIPA protein lysis buffer (Beyotime, China). Total cell lysates were prepared with RIPA lysis buffer containing phosphatase inhibitors (Roche, China) and protease inhibitors (MedChemExpress, United States). Total cell lysates were centrifuged at 10,000 g for 10 min at 4°C to obtain the supernatant. The protein concentration was detected according to the BCA Protein Assay Kit (Beyotime, China). Then, 5× SDS loading buffer (Beyotime, China) was added to the supernatant and boiled at 100°C for 10 min. The obtained protein samples were stored at −80°C.
(§4) The protein samples (20 μg) were resolved on 4% concentration glue and 12% separating glue and prepared according to the SDS-PAGE Gel Quick Preparation Kit procedure (Beyotime, China). After electrophoresis at 80 V for 1.5–2 h, the proteins were wet-transferred onto a polyvinylidene difluoride membrane (PVDF, Millipore) at 300 mA for 1–1.5 h. […]

Bcl-2 [4] = assay: Western blot, Bcl-2 expression in HepG2 cells; type: cell-based, human; settings: HepG2, 25 μM, 48 h, vs DMSO control, p < 0.01
Procedure: as §3, §4

Bax [5] = assay: Western blot, Bax expression in 7402 cells; type: cell-based, human; settings: 7402, 25 μM, 48 h, vs DMSO control
Procedure: as §3, §4

Bcl-2 [6] = assay: Western blot, Bcl-2 expression in 7402 cells; type: cell-based, human; settings: 7402, 25 μM, 48 h, vs DMSO control, p < 0.01
Procedure: as §3, §4

O=C1/C(=C/c2ccc(Cl)cc2)CC(/C=C/c2ccc(Cl)cc2)(C(=O)NC2CCCCC2)N1c1ccc(F)cc1 (centres unmarked) [RPDPRH, (2E, 4E)-4-(4-chlorobenzylidene)-2-(4-chlorostyryl)-N-cyclohexyl-1-(4-fluorophenyl)-5-oxopyrrolidine-2-carboxamide]
IC50 (7402 cells [1]): 22.4 µM
IC50 (LO2 cells; Homo sapiens, L02, normal liver LO2 cells, 48 h, read-out: Half inhibitory concentration (IC50), LO2): > 100 µM
toxicity to the normal hepatic LO2 cells (LO2 cells; LO2 cells, insignificant inhibition at 100 µM (Table 1 footnote b)): no significant toxicity
early apoptotic cell (LR) rate (HepG2 cells; HepG2, 6.25 μM): 5.53%
late apoptotic (UR) rate (HepG2 cells; HepG2, 6.25 μM): 5.07%
total apoptosis rate (HepG2 cells; HepG2, 6.25 μM): 10.6 ± 1.49%
early apoptotic cell (LR) rate (HepG2 cells; HepG2, 12.5 μM): 14.90%
late apoptotic (UR) rate (HepG2 cells; HepG2, 12.5 μM): 21.00%
total apoptosis rate (HepG2 cells; HepG2, 12.5 μM): 35.90 ± 2.51%
early apoptotic cell (LR) rate (HepG2 cells; HepG2, 25 μM): 19.80%
late apoptotic (UR) rate (HepG2 cells; HepG2, 25 μM): 32.30%
total apoptosis rate (HepG2 cells; HepG2, 25 μM): 52.10 ± 4.49%
early apoptotic cell (LR) rate (7402 cells [2]; 7402, 6.25 μM): 4.37%
late apoptotic (UR) rate (7402 cells [2]; 7402, 6.25 μM): 9.34%
total apoptosis rate (7402 cells [2]; 7402, 6.25 μM): 13.71 ± 1.30%
early apoptotic cell (LR) rate (7402 cells [2]; 7402, 12.5 μM): 8.53%
late apoptotic (UR) rate (7402 cells [2]; 7402, 12.5 μM): 15.30%
early apoptotic cell (LR) rate (7402 cells [2]; 7402, 25 μM): 11.40%
late apoptotic (UR) rate (7402 cells [2]; 7402, 25 μM): 24.60%
total apoptosis rate (7402 cells [2]; 7402, 25 μM): 36.00 ± 2.67%
ratio of Bax/Bcl-2 (Bax [3]): increase obviously
expression of pro-apoptotic protein Bax (Bax [3]; p < 0.05): significant increase
expression of anti-apoptotic protein Bcl-2 (Bcl-2 [4]): decrease
ratio of Bax/Bcl-2 (Bax [5]): increase obviously
expression of pro-apoptotic protein Bax (Bax [5]; p < 0.05): significant increase
expression of anti-apoptotic protein Bcl-2 (Bcl-2 [6]): decrease

Source: paper PMC9157788, “Design, Synthesis, and Apoptosis-Promoting Effect Evaluation of Rhopaladins’ Analog 4-Arylidene-5-Oxopyrrolidine Derivatives” (Frontiers in Chemistry, 2022)
